# From BigSolDB 2.1
smiles,measurement,setting,value
CCOC(=O)Cc1c(C(=O)OCC)sc(N)c1C#N,solubility (mole fraction),"in acetone, 273.15 K",0.0446
same,solubility (mole fraction),"in acetone, 278.15 K",0.0499
same,solubility (mole fraction),"in acetone, 283.15 K",0.0558
same,solubility (mole fraction),"in acetone, 288.15 K",0.0628
same,solubility (mole fraction),"in acetone, 293.15 K",0.071
same,solubility (mole fraction),"in acetone, 298.15 K",0.0801
same,solubility (mole fraction),"in acetone, 303.15 K",0.0902
same,solubility (mole fraction),"in acetone, 308.15 K",0.101
same,solubility (mole fraction),"in acetone, 313.15 K",0.113
same,solubility (mole fraction),"in acetone, 318.15 K",0.126
same,solubility (mole fraction),"in acetonitrile, 273.15 K",0.0082
same,solubility (mole fraction),"in acetonitrile, 278.15 K",0.0102
same,solubility (mole fraction),"in acetonitrile, 283.15 K",0.0125
same,solubility (mole fraction),"in acetonitrile, 288.15 K",0.0151
same,solubility (mole fraction),"in acetonitrile, 293.15 K",0.0185
same,solubility (mole fraction),"in acetonitrile, 298.15 K",0.0225
same,solubility (mole fraction),"in acetonitrile, 303.15 K",0.0268
same,solubility (mole fraction),"in acetonitrile, 308.15 K",0.0323
same,solubility (mole fraction),"in acetonitrile, 313.15 K",0.0385
same,solubility (mole fraction),"in acetonitrile, 318.15 K",0.0455
same,solubility (mole fraction),"in ethanol, 273.15 K",0.0031
same,solubility (mole fraction),"in ethanol, 278.15 K",0.00399
same,solubility (mole fraction),"in ethanol, 283.15 K",0.00505
same,solubility (mole fraction),"in ethanol, 288.15 K",0.00637
same,solubility (mole fraction),"in ethanol, 293.15 K",0.00798
same,solubility (mole fraction),"in ethanol, 298.15 K",0.00998
same,solubility (mole fraction),"in ethanol, 303.15 K",0.0123
same,solubility (mole fraction),"in ethanol, 308.15 K",0.015
same,solubility (mole fraction),"in ethanol, 313.15 K",0.0186
same,solubility (mole fraction),"in ethanol, 318.15 K",0.0227
same,solubility (mole fraction),"in ethyl acetate, 273.15 K",0.0237
same,solubility (mole fraction),"in ethyl acetate, 278.15 K",0.0257
same,solubility (mole fraction),"in ethyl acetate, 283.15 K",0.0286
same,solubility (mole fraction),"in ethyl acetate, 288.15 K",0.0318
same,solubility (mole fraction),"in ethyl acetate, 293.15 K",0.0349
same,solubility (mole fraction),"in ethyl acetate, 298.15 K",0.0386
same,solubility (mole fraction),"in ethyl acetate, 303.15 K",0.0427
same,solubility (mole fraction),"in ethyl acetate, 308.15 K",0.0473
same,solubility (mole fraction),"in ethyl acetate, 313.15 K",0.0519
same,solubility (mole fraction),"in ethyl acetate, 318.15 K",0.0567
same,solubility (mole fraction),"in isopropanol, 273.15 K",0.00232
same,solubility (mole fraction),"in isopropanol, 278.15 K",0.00307
same,solubility (mole fraction),"in isopropanol, 283.15 K",0.00396
same,solubility (mole fraction),"in isopropanol, 288.15 K",0.00513
same,solubility (mole fraction),"in isopropanol, 293.15 K",0.00656
same,solubility (mole fraction),"in isopropanol, 298.15 K",0.00845
same,solubility (mole fraction),"in isopropanol, 303.15 K",0.0107
same,solubility (mole fraction),"in isopropanol, 308.15 K",0.0134
same,solubility (mole fraction),"in isopropanol, 313.15 K",0.0168
same,solubility (mole fraction),"in isopropanol, 318.15 K",0.0213
same,solubility (mole fraction),"in methanol, 273.15 K",0.00483
same,solubility (mole fraction),"in methanol, 278.15 K",0.00609
same,solubility (mole fraction),"in methanol, 283.15 K",0.00759
same,solubility (mole fraction),"in methanol, 288.15 K",0.00947
same,solubility (mole fraction),"in methanol, 293.15 K",0.0118
same,solubility (mole fraction),"in methanol, 298.15 K",0.0144
same,solubility (mole fraction),"in methanol, 303.15 K",0.0176
same,solubility (mole fraction),"in methanol, 308.15 K",0.0214
same,solubility (mole fraction),"in methanol, 313.15 K",0.0261
same,solubility (mole fraction),"in methanol, 318.15 K",0.0313
same,solubility (mole fraction),"in n-butanol, 273.15 K",0.00204
same,solubility (mole fraction),"in n-butanol, 278.15 K",0.00266
same,solubility (mole fraction),"in n-butanol, 283.15 K",0.00343
same,solubility (mole fraction),"in n-butanol, 288.15 K",0.00438
same,solubility (mole fraction),"in n-butanol, 293.15 K",0.00559
same,solubility (mole fraction),"in n-butanol, 298.15 K",0.0071
same,solubility (mole fraction),"in n-butanol, 303.15 K",0.0091
same,solubility (mole fraction),"in n-butanol, 308.15 K",0.0114
same,solubility (mole fraction),"in n-butanol, 313.15 K",0.0144
same,solubility (mole fraction),"in n-butanol, 318.15 K",0.0177
same,solubility (mole fraction),"in n-propanol, 273.15 K",0.00217
same,solubility (mole fraction),"in n-propanol, 278.15 K",0.00286
same,solubility (mole fraction),"in n-propanol, 283.15 K",0.0036
same,solubility (mole fraction),"in n-propanol, 288.15 K",0.00471
same,solubility (mole fraction),"in n-propanol, 293.15 K",0.00618
same,solubility (mole fraction),"in n-propanol, 298.15 K",0.00763
same,solubility (mole fraction),"in n-propanol, 303.15 K",0.00961
same,solubility (mole fraction),"in n-propanol, 308.15 K",0.012
same,solubility (mole fraction),"in n-propanol, 313.15 K",0.0151
same,solubility (mole fraction),"in n-propanol, 318.15 K",0.0188
same,solubility (mole fraction),"in toluene, 273.15 K",0.000402
same,solubility (mole fraction),"in toluene, 278.15 K",0.00052
same,solubility (mole fraction),"in toluene, 283.15 K",0.000664
same,solubility (mole fraction),"in toluene, 288.15 K",0.000858
same,solubility (mole fraction),"in toluene, 293.15 K",0.00109
same,solubility (mole fraction),"in toluene, 298.15 K",0.00139
same,solubility (mole fraction),"in toluene, 303.15 K",0.00171
same,solubility (mole fraction),"in toluene, 308.15 K",0.00215
same,solubility (mole fraction),"in toluene, 313.15 K",0.00265
same,solubility (mole fraction),"in toluene, 318.15 K",0.00323
